The values that follow come from patent US20160346392A1, “PULSE PHOTODYNAMIC TREATMENT OF SKIN CONDITIONS” (GALDERMA RESEARCH & DEVELOPMENT, priority 2013, published 2016).

The test system of series [1] is PpIX fluorescence. The series can be described thus: Metvix pulse time investigation (Method B) on healthy volunteers: PpIX fluorescence. Conditions: short (30 min) pulse vs conventional 3-hour exposure; Table 1 and FIG. 8. It is filed as in vivo, human. As to the method: (§1) The formation of PPIX after 3 hours is seen in FIG. 8, and the relation to inflammation is seen in FIG. 9. […] The results are illustrated in Column 3 in FIGS. 4, 5, 6, and 7. […] Pain level is not changed.
Twenty-four healthy male volunteers of Scandinavian ancestry were included in the study (mean age 30 years, range 20-51). A treatment area was selected on the inside of both forearms of the volunteer. Each treatment area was divided into four minor treatment fields of the size 2×5 cm with at least 3 cm between each field using a prefabricated flexible template. In order to imitate skin lesions all fields were tape stripped 10 times with occlusive dressing before treatment (Tegaderm™ Roll, 3M, Glostrup, Denmark). […]
All fields were covered with light-impermeable, occlusive dressing. […] During and after illumination pain was recorded. […]
5-MAL-induced PpIX fluorescence was depicted non-invasively using a fluorescence camera (Medeikonos AB, Gothenburg, Sweden). The amount of PpIX fluorescence was calculated from the photographs by the program MatLab® (MatLab®, MathWorks, Natic, US). The amount of fluorescence was measured before tape stripping and cream application (baseline) and before and after illumination.
The photo bleaching is then the difference in PpIX fluorescence (AU) calculated from the pre and post illumination images.

Series [2] is described as follows: Method A investigation of efficacy and inflammation with 30 min pulse exposure PDT. Type of series: in vivo. As to the method:
as §1

Series [3] deals with acne. Conditions: cream 16% wt. applied to face for 3 hours, non-coherent red light, repeated 2 weeks later; cited from earlier work.
Series [4] concerns acne. As to conditions: 20% ALA acid applied to back for 3 hours, 150 J/cm2 broad band light; cited from earlier work.

“Also recorded” adds a separate entry of the source. Where two headings read alike, the source gives them in different places.

For `COC(=O)CCC(=O)CN` [5-MAL, 5-ALA methyl ester], the “PPIX concentration, pulse exposure versus conventional 3-hour exposure” value in series [1] is recorded as “clearly lower than for the conventional 3 hour exposure”. Moreover, in series [2] (30 min pulse exposure vs conventional 180 min exposure, FIGS. 6, 7), the “inflammation (erythema)” value is listed as “less inflammation”. In addition, in series [2] (30 min pulse exposure vs conventional exposure, FIG. 4), the pain level result is on record as “not changed”. Moreover, in series [2] (30 min pulse exposure vs conventional exposure, FIG. 5), the “cure rate / efficacy” value is listed as “unchanged efficacy; also recorded: as efficient”. Besides, in series [3], the “efficacy in treatment of acne” value is recorded as “effective in the treatment of acne”; the “side effects of treatment” value was “caused pain and induced severe inflammation”.
For `NCC(=O)CCC(=O)O` [ALA, 5-amino-4-oxo-pentanoic acid], in series [4], the “efficacy in treatment of acne” value is “effective for the treatment of acne”; the “side effects of treatment” value is “erythema, hyperpigmentation and exfoliation were often seen after PDT treatment”.
